Tests used:
[1] = DTA
[2] = molar heat capacity at constant pressure; details: 101.33 kPa, Crystal 4, Small sample (50 mg) DSC
[3] = Molar enthalpy of transition or fusion; details: DSC

CCN1C(=O)CC(=O)N(CC)C1=S [1,3-diethyl-2-thiobarbituric acid]
Details	Molar enthalpy of transition or fusion [kcal/mol]	Triple point temperature [K]	molar heat capacity at constant pressure [J/K/mol]
[1], Crystal	–	377.1	–
[2], 265.15 K	–	–	213.5
[2], 270.15 K	–	–	217.3
[2], 273.15 K	–	–	219.8
[2], 275.15 K	–	–	221.2
[2], 280.15 K	–	–	224.5
[2], 285.15 K	–	–	227.7
[2], 290.15 K	–	–	230.4
[2], 295.15 K	–	–	233.7
[2], 298.15 K	–	–	236.9
[2], 300.15 K	–	–	238.9
[2], 305.15 K	–	–	240.8
[2], 310.15 K	–	–	244.8
[2], 315.15 K	–	–	249.8
[2], 320.15 K	–	–	252.9
[2], 325.15 K	–	–	256.1
[2], 330.15 K	–	–	259.7
[2], 335.15 K	–	–	263.1
[2], 340.15 K	–	–	266.5
[2], 345.15 K	–	–	269.7
[2], 350.15 K	–	–	273.3
[2], 355.15 K	–	–	277.8
[2], 360.15 K	–	–	282.3
[2], 365.15 K	–	–	287.2
[3], Crystal	8.48	–	–

Oc1cc(O)nc(S)n1 [2-mercapto-4,6-pyrimidinediol]
Details	Molar enthalpy of transition or fusion [kcal/mol]	Triple point temperature [K]	molar heat capacity at constant pressure [J/K/mol]
[1], Crystal 1	–	516.4	–
[1], Crystal 2	–	498	–
[1], Crystal 3	–	475.8	–
[1], Crystal 4	–	447.2	–
[2], 265.15 K	–	–	124.3
[2], 270.15 K	–	–	126.6
[2], 273.15 K	–	–	128
[2], 275.15 K	–	–	128.8
[2], 280.15 K	–	–	131.1
[2], 285.15 K	–	–	132.5
[2], 290.15 K	–	–	134.2
[2], 295.15 K	–	–	136.2
[2], 298.15 K	–	–	137.2
[2], 300.15 K	–	–	138.6
[2], 305.15 K	–	–	140
[2], 310.15 K	–	–	142.2
[2], 315.15 K	–	–	144.7
[2], 320.15 K	–	–	146.3
[2], 325.15 K	–	–	147.9
[2], 330.15 K	–	–	150.1
[2], 335.15 K	–	–	152
[2], 340.15 K	–	–	153.8
[2], 345.15 K	–	–	155.2
[2], 350.15 K	–	–	156.6
[2], 355.15 K	–	–	158.4
[2], 360.15 K	–	–	160.2
[2], 365.15 K	–	–	162.6
[2], 370.15 K	–	–	164.7
[2], 375.15 K	–	–	166
[2], 380.15 K	–	–	167.7
[2], 385.15 K	–	–	169.2
[2], 390.15 K	–	–	171
[2], 395.15 K	–	–	172.3
[2], 400.15 K	–	–	174.8
[2], 405.15 K	–	–	175.9
[2], 410.15 K	–	–	177.2
[2], 415.15 K	–	–	178.5
[2], 420.15 K	–	–	179.8
[2], 425.15 K	–	–	181.3
[2], 430.15 K	–	–	182.9
[3], Crystal 1	3.54	–	–
[3], Crystal 2	0.0717	–	–
[3], Crystal 3	0.0478	–	–
[3], Crystal 4	0.167	–	–

Reference: the NIST ThermoML archive (doi:10.1021/je200420u)
